Measurements taken from the supplement of paper PMC8671470.

These molecules were tested on KCL-22. Conditions: 72 h.
Summary of the method: (§1)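 The IC50 was derived from log-logistic dose–response fitting. Each of fifteen myeloid leukaemia cell lines, seeded in RPMI 1640 within its linear growth range, was exposed in 384-well plates to five tenfold doses (1 to 10,000 nM) in duplicate for 72 h at 37 °C and 5% CO2. Luminescent ATP viability readings were normalised to vehicle and to a positive control at 10 µM before four-parameter curve fitting.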

Row | SMILES | IC50 (cell viability)
1 | C=C1NC(=O)c2cc(CN(C)c3ccc(C(=O)N[C@@H](CCC(=O)O)C(=O)O)s3)ccc2N1 [Raltitrexed] | 0.0698 µM
2 | CNC(=C[N+](=O)[O-])NCCSCc1ccc(CN(C)C)o1 [Ranitidine] | > 10 µM
3 | C#CCN[C@@H]1CCc2ccccc21 [Rasagiline] | > 10 µM
4 | NC(CCC(=O)NC(CSCc1ccc(Br)cc1)C(=O)NCC(=O)OC1CCCC1)C(=O)OC1CCCC1 (stereo not given) [S-para-Bromobenzylglutathione cyclopentyl diester] | > 10 µM
5 | COc1cc(C2Oc3cc(C4Oc5cc(O)cc(O)c5C(=O)C4O)ccc3OC2CO)ccc1O (stereo not given) [Silibinin] | > 10 µM
6 | Fc1ccc(CNc2ncnc3ccc(F)cc23)cc1 [Spautin 1] | > 10 µM
7 | Cn1c2cc(S(C)=O)sc2c2cnn(Cc3cccc(N)c3)c(=O)c21 (stereo not given) [TEPP-46] | > 10 µM
8 | CCCCCCCCCCCCCCOc1ccc(C(=O)O)o1 [TOFA] | 8.33 µM
9 | CN1CC(=O)N2[C@H](c3ccc4c(c3)OCO4)c3[nH]c4ccccc4c3C[C@@H]2C1=O [Tadalafil] | > 10 µM

What follows are molecules tested on NOMO-1. Conditions: 72 h.
Summary of the method: as §1

Row | SMILES | IC50 (cell viability)
10 | CC(C)(F)C[C@H](N[C@@H](c1ccc(-c2ccc(S(C)(=O)=O)cc2)cc1)C(F)(F)F)C(=O)NC1(C#N)CC1 [Odanacatib] | > 10 µM
11 | Nc1nc(O)c2c(CCc3ccc(C(=O)N[C@@H](CCC(=O)O)C(=O)O)cc3)c[nH]c2n1 [Pemetrexed] | 1.37 µM
12 | C=C1NC(=O)c2cc(CN(C)c3ccc(C(=O)N[C@@H](CCC(=O)O)C(=O)O)s3)ccc2N1 [Raltitrexed] | 0.0829 µM
13 | CNC(=C[N+](=O)[O-])NCCSCc1ccc(CN(C)C)o1 [Ranitidine] | > 10 µM
14 | C#CCN[C@@H]1CCc2ccccc21 [Rasagiline] | > 10 µM
15 | NC(CCC(=O)NC(CSCc1ccc(Br)cc1)C(=O)NCC(=O)OC1CCCC1)C(=O)OC1CCCC1 (stereo not given) [S-para-Bromobenzylglutathione cyclopentyl diester] | > 10 µM
16 | COc1cc(C2Oc3cc(C4Oc5cc(O)cc(O)c5C(=O)C4O)ccc3OC2CO)ccc1O (stereo not given) [Silibinin] | > 10 µM
17 | Fc1ccc(CNc2ncnc3ccc(F)cc23)cc1 [Spautin 1] | > 10 µM
18 | Cn1c2cc(S(C)=O)sc2c2cnn(Cc3cccc(N)c3)c(=O)c21 (stereo not given) [TEPP-46] | > 10 µM
19 | CCCCCCCCCCCCCCOc1ccc(C(=O)O)o1 [TOFA] | > 10 µM
20 | CN1CC(=O)N2[C@H](c3ccc4c(c3)OCO4)c3[nH]c4ccccc4c3C[C@@H]2C1=O [Tadalafil] | > 10 µM

The molecules below were run on HEL. Conditions: 72 h.
Summary of the method: as §1

Row | SMILES | IC50 (cell viability)
21 | CC(C)(F)C[C@H](N[C@@H](c1ccc(-c2ccc(S(C)(=O)=O)cc2)cc1)C(F)(F)F)C(=O)NC1(C#N)CC1 [Odanacatib] | > 10 µM
22 | Nc1nc(O)c2c(CCc3ccc(C(=O)N[C@@H](CCC(=O)O)C(=O)O)cc3)c[nH]c2n1 [Pemetrexed] | 0.116 µM
23 | C=C1NC(=O)c2cc(CN(C)c3ccc(C(=O)N[C@@H](CCC(=O)O)C(=O)O)s3)ccc2N1 [Raltitrexed] | 0.0376 µM
24 | CNC(=C[N+](=O)[O-])NCCSCc1ccc(CN(C)C)o1 [Ranitidine] | > 10 µM
25 | C#CCN[C@@H]1CCc2ccccc21 [Rasagiline] | > 10 µM
26 | NC(CCC(=O)NC(CSCc1ccc(Br)cc1)C(=O)NCC(=O)OC1CCCC1)C(=O)OC1CCCC1 (stereo not given) [S-para-Bromobenzylglutathione cyclopentyl diester] | > 10 µM
27 | COc1cc(C2Oc3cc(C4Oc5cc(O)cc(O)c5C(=O)C4O)ccc3OC2CO)ccc1O (stereo not given) [Silibinin] | > 10 µM
28 | Fc1ccc(CNc2ncnc3ccc(F)cc23)cc1 [Spautin 1] | 9.11 µM
29 | Cn1c2cc(S(C)=O)sc2c2cnn(Cc3cccc(N)c3)c(=O)c21 (stereo not given) [TEPP-46] | > 10 µM
30 | CCCCCCCCCCCCCCOc1ccc(C(=O)O)o1 [TOFA] | > 10 µM
31 | CN1CC(=O)N2[C@H](c3ccc4c(c3)OCO4)c3[nH]c4ccccc4c3C[C@@H]2C1=O [Tadalafil] | > 10 µM

The molecules below were run on ML-2. Conditions: 72 h.
Summary of the method: as §1

Row | SMILES | IC50 (cell viability)
32 | CC(C)(F)C[C@H](N[C@@H](c1ccc(-c2ccc(S(C)(=O)=O)cc2)cc1)C(F)(F)F)C(=O)NC1(C#N)CC1 [Odanacatib] | > 10 µM
33 | Nc1nc(O)c2c(CCc3ccc(C(=O)N[C@@H](CCC(=O)O)C(=O)O)cc3)c[nH]c2n1 [Pemetrexed] | 0.336 µM
34 | C=C1NC(=O)c2cc(CN(C)c3ccc(C(=O)N[C@@H](CCC(=O)O)C(=O)O)s3)ccc2N1 [Raltitrexed] | 0.122 µM
35 | CNC(=C[N+](=O)[O-])NCCSCc1ccc(CN(C)C)o1 [Ranitidine] | > 10 µM
36 | C#CCN[C@@H]1CCc2ccccc21 [Rasagiline] | > 10 µM
37 | NC(CCC(=O)NC(CSCc1ccc(Br)cc1)C(=O)NCC(=O)OC1CCCC1)C(=O)OC1CCCC1 (stereo not given) [S-para-Bromobenzylglutathione cyclopentyl diester] | 3.95 µM
38 | COc1cc(C2Oc3cc(C4Oc5cc(O)cc(O)c5C(=O)C4O)ccc3OC2CO)ccc1O (stereo not given) [Silibinin] | > 10 µM
39 | Fc1ccc(CNc2ncnc3ccc(F)cc23)cc1 [Spautin 1] | > 10 µM
40 | Cn1c2cc(S(C)=O)sc2c2cnn(Cc3cccc(N)c3)c(=O)c21 (stereo not given) [TEPP-46] | > 10 µM
41 | CCCCCCCCCCCCCCOc1ccc(C(=O)O)o1 [TOFA] | > 10 µM
42 | CN1CC(=O)N2[C@H](c3ccc4c(c3)OCO4)c3[nH]c4ccccc4c3C[C@@H]2C1=O [Tadalafil] | > 10 µM

The molecules below were run on Mono-Mac-6. Conditions: 72 h.
Summary of the method: as §1

Row | SMILES | IC50 (cell viability)
43 | CC(C)(F)C[C@H](N[C@@H](c1ccc(-c2ccc(S(C)(=O)=O)cc2)cc1)C(F)(F)F)C(=O)NC1(C#N)CC1 [Odanacatib] | > 10 µM
44 | Nc1nc(O)c2c(CCc3ccc(C(=O)N[C@@H](CCC(=O)O)C(=O)O)cc3)c[nH]c2n1 [Pemetrexed] | 0.312 µM
45 | C=C1NC(=O)c2cc(CN(C)c3ccc(C(=O)N[C@@H](CCC(=O)O)C(=O)O)s3)ccc2N1 [Raltitrexed] | 0.0452 µM
46 | CNC(=C[N+](=O)[O-])NCCSCc1ccc(CN(C)C)o1 [Ranitidine] | > 10 µM
47 | C#CCN[C@@H]1CCc2ccccc21 [Rasagiline] | > 10 µM
48 | NC(CCC(=O)NC(CSCc1ccc(Br)cc1)C(=O)NCC(=O)OC1CCCC1)C(=O)OC1CCCC1 (stereo not given) [S-para-Bromobenzylglutathione cyclopentyl diester] | > 10 µM
49 | COc1cc(C2Oc3cc(C4Oc5cc(O)cc(O)c5C(=O)C4O)ccc3OC2CO)ccc1O (stereo not given) [Silibinin] | > 10 µM
50 | Fc1ccc(CNc2ncnc3ccc(F)cc23)cc1 [Spautin 1] | > 10 µM
51 | Cn1c2cc(S(C)=O)sc2c2cnn(Cc3cccc(N)c3)c(=O)c21 (stereo not given) [TEPP-46] | > 10 µM
52 | CCCCCCCCCCCCCCOc1ccc(C(=O)O)o1 [TOFA] | > 10 µM
53 | CN1CC(=O)N2[C@H](c3ccc4c(c3)OCO4)c3[nH]c4ccccc4c3C[C@@H]2C1=O [Tadalafil] | > 10 µM

Each molecule was assayed on SHI-1. Conditions: 72 h.
Summary of the method: as §1

Row | SMILES | IC50 (cell viability)
54 | CC(C)(F)C[C@H](N[C@@H](c1ccc(-c2ccc(S(C)(=O)=O)cc2)cc1)C(F)(F)F)C(=O)NC1(C#N)CC1 [Odanacatib] | > 10 µM
55 | Nc1nc(O)c2c(CCc3ccc(C(=O)N[C@@H](CCC(=O)O)C(=O)O)cc3)c[nH]c2n1 [Pemetrexed] | 2.32 µM
56 | C=C1NC(=O)c2cc(CN(C)c3ccc(C(=O)N[C@@H](CCC(=O)O)C(=O)O)s3)ccc2N1 [Raltitrexed] | 0.562 µM
57 | CNC(=C[N+](=O)[O-])NCCSCc1ccc(CN(C)C)o1 [Ranitidine] | > 10 µM
58 | C#CCN[C@@H]1CCc2ccccc21 [Rasagiline] | > 10 µM
59 | NC(CCC(=O)NC(CSCc1ccc(Br)cc1)C(=O)NCC(=O)OC1CCCC1)C(=O)OC1CCCC1 (stereo not given) [S-para-Bromobenzylglutathione cyclopentyl diester] | > 10 µM
60 | COc1cc(C2Oc3cc(C4Oc5cc(O)cc(O)c5C(=O)C4O)ccc3OC2CO)ccc1O (stereo not given) [Silibinin] | > 10 µM
61 | Fc1ccc(CNc2ncnc3ccc(F)cc23)cc1 [Spautin 1] | > 10 µM
62 | Cn1c2cc(S(C)=O)sc2c2cnn(Cc3cccc(N)c3)c(=O)c21 (stereo not given) [TEPP-46] | > 10 µM
63 | CCCCCCCCCCCCCCOc1ccc(C(=O)O)o1 [TOFA] | > 10 µM
64 | CN1CC(=O)N2[C@H](c3ccc4c(c3)OCO4)c3[nH]c4ccccc4c3C[C@@H]2C1=O [Tadalafil] | > 10 µM

These molecules were tested on THP-1. Conditions: 72 h.
Summary of the method: as §1

Row | SMILES | IC50 (cell viability)
65 | CC(C)(F)C[C@H](N[C@@H](c1ccc(-c2ccc(S(C)(=O)=O)cc2)cc1)C(F)(F)F)C(=O)NC1(C#N)CC1 [Odanacatib] | > 10 µM
